Source: PMC7366380, “Discovery of a Potent and Selective Covalent Inhibitor and Activity-Based Probe for the Deubiquitylating Enzyme UCHL1, with Antifibrotic Activity” (Journal of the American Chemical Society, 2020)
“And” between values parts separate entries of the source, which are not always exact repeats. Equal entries are not always repeated. Values belong to the compound of their own block, whether it stands above or below them.

Experiments:
Test in all cases: In-cell proteome-wide competitive ABPP, HEK293: other DUBs and proteins
[1] = biological target: T1, DUBs and other proteins in HEK293 cells (Homo sapiens, UniProt Q86UV5); settings: for Log2 reporter intensity values: USP48: DMSO substract (FC), replicates A-B; for Log2 reporter intensity values: USP48, DMSO subtracted
T1 sequence (Q86UV5 1-1035): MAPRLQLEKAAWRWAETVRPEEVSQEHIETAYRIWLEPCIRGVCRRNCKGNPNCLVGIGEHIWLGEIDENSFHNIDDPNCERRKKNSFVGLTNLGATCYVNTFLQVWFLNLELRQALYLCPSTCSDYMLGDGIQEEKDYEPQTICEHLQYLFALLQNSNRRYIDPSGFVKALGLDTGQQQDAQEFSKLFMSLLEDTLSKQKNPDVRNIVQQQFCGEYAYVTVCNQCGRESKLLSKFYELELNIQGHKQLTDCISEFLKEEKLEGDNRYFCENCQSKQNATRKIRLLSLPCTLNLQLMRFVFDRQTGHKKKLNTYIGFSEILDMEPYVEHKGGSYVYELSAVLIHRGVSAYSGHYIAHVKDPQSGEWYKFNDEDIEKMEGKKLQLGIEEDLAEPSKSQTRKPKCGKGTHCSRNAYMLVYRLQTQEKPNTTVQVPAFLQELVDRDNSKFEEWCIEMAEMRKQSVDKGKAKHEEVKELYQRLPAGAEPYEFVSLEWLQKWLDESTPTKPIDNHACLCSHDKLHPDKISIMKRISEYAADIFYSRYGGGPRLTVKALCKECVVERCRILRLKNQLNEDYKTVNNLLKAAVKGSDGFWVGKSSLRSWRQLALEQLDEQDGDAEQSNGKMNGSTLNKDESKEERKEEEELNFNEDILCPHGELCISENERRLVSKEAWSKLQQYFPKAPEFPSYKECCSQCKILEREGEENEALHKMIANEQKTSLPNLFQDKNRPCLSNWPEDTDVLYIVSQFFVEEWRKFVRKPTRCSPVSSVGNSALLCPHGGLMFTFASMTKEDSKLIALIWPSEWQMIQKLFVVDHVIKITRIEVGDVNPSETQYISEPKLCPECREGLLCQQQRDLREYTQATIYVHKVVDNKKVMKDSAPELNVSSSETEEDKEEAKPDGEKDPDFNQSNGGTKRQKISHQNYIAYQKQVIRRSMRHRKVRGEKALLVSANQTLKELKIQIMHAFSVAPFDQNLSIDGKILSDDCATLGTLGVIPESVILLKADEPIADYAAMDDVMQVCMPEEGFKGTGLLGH

[2] = biological target: DUBs and other proteins in HEK293 cells (Homo sapiens, UniProt Q96FW1); settings: replicates A-C; for Log2 reporter intensity values: OTUB1: DMSO substract (FC); for Log2 reporter intensity values: OTUB1, DMSO subtracted
Sequence of DUBs and other proteins in HEK293 cells (Homo sapiens, UniProt Q96FW1) (Q96FW1 whole entry): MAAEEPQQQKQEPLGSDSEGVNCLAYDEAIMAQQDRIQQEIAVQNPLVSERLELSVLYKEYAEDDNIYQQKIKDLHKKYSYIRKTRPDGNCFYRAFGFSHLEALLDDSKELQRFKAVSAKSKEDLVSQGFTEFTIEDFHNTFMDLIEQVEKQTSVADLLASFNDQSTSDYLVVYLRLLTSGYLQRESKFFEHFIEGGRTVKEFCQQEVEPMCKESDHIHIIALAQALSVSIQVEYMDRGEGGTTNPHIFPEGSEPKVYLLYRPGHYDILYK

[3] = biological target: DUBs and other proteins in HEK293 cells (Homo sapiens, UniProt O00303); settings: for Log2 reporter intensity values, EIF3F: TMT replicates; for Log2 reporter intensity values: EIF3F: competition with ABP 2, DMSO substract (FC); for Log2 reporter intensity values: EIF3F / Log2 reporter intensity values: replicates A-C; for Log2 t-test Difference / Log2 reporter intensity values: EIF3F
Sequence of DUBs and other proteins in HEK293 cells (Homo sapiens, UniProt O00303) (O00303 whole entry): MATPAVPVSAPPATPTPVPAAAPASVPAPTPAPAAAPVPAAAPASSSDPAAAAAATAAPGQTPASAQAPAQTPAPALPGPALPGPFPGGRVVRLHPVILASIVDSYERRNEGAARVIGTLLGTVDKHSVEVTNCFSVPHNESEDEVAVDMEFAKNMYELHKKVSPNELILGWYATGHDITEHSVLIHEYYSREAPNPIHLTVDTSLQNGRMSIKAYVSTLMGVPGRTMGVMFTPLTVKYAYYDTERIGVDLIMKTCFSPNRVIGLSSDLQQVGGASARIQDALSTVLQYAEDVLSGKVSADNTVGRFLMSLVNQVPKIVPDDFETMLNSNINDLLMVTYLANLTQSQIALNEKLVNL

[4] = biological target: DUBs and other proteins in HEK293 cells (Homo sapiens, UniProt Q93009); settings: replicates A-C; for Log2 reporter intensity values: USP7: DMSO substract (FC); for Log2 reporter intensity values: USP7, DMSO subtracted
Sequence of DUBs and other proteins in HEK293 cells (Homo sapiens, UniProt Q93009) (Q93009 whole entry): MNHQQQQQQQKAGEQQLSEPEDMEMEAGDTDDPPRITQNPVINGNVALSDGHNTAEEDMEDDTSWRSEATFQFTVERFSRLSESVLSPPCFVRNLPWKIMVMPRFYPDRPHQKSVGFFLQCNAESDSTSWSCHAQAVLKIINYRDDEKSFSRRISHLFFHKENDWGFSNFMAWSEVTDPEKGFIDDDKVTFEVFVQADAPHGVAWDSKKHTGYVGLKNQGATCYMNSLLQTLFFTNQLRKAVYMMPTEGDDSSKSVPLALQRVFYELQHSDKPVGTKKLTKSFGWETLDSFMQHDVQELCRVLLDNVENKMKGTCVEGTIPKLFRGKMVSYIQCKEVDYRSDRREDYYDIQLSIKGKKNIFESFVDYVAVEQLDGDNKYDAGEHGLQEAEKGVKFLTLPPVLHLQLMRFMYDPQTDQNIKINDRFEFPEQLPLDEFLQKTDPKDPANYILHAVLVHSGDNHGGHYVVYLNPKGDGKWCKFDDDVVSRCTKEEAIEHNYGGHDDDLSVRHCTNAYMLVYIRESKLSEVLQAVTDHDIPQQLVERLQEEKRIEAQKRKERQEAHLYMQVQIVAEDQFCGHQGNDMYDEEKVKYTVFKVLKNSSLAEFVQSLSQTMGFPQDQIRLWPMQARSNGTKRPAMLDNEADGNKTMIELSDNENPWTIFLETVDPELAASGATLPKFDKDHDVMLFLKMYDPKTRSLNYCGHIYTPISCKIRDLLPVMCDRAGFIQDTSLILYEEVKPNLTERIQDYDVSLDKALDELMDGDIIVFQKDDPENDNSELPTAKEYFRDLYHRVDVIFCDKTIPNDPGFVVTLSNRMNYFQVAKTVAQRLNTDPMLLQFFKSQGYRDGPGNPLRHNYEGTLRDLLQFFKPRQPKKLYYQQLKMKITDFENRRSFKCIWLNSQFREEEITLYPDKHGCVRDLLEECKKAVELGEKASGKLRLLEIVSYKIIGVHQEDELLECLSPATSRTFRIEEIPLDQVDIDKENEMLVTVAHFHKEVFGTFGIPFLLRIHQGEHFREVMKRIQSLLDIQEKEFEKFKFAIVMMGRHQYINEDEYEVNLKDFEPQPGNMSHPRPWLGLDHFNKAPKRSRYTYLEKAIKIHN

[5] = biological target: DUBs and other proteins in HEK293 cells (Homo sapiens, UniProt O00487); settings: replicates A-C; for Log2 reporter intensity values: PSMD14: DMSO substract (FC); for Log2 reporter intensity values: PSMD14, DMSO subtracted
Sequence of DUBs and other proteins in HEK293 cells (Homo sapiens, UniProt O00487) (O00487 whole entry): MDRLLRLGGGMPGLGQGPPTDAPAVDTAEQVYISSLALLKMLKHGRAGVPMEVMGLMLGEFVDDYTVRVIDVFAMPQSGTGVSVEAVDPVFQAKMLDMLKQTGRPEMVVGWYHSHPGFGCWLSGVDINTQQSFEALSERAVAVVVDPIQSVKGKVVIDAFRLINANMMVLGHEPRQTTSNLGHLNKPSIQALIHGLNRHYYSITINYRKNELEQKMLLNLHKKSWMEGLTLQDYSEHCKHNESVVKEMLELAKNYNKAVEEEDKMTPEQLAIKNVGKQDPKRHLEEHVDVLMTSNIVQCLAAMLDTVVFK

[6] = biological target: DUBs and other proteins in HEK293 cells (Homo sapiens, UniProt Q14694); settings: replicates A-C; for Log2 reporter intensity values: USP10: competition with ABP 2, DMSO substract (FC); for Log2 reporter intensity values: USP10, DMSO subtracted
Sequence of DUBs and other proteins in HEK293 cells (Homo sapiens, UniProt Q14694) (Q14694 whole entry): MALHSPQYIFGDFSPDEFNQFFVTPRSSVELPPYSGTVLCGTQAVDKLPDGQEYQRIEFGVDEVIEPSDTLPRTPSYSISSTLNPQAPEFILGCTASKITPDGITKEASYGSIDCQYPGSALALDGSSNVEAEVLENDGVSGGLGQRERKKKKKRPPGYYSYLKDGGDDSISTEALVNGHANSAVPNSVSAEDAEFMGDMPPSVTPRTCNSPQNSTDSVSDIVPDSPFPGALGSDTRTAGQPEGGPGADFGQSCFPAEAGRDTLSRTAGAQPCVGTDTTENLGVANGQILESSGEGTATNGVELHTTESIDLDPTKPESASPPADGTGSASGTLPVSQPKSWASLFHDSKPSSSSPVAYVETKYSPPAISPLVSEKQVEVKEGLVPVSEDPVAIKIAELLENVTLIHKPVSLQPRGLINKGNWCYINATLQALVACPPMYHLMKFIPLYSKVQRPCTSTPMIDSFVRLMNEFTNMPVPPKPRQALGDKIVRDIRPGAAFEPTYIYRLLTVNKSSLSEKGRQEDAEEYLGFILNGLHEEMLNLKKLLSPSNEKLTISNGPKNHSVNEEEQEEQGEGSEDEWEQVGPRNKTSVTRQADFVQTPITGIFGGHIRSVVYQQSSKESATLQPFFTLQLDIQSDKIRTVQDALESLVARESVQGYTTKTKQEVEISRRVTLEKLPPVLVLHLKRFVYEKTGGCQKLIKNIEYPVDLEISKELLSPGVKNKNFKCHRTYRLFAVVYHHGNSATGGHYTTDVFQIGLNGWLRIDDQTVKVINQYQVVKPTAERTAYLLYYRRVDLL

[7] = biological target: DUBs and other proteins in HEK293 cells (Homo sapiens, UniProt Q6P2Q9); settings: replicates A-C; for Log2 reporter intensity values: PRPF8: DMSO substract (FC); for Log2 reporter intensity values: PRPF8, DMSO subtracted
[8] = 1 at 1 μM, competition with ABP 2
[9] = 1 at 4 μM, competition with ABP 2

Log2 reporter intensity values: USP48 [1, 8]: 1.114 and 0.9292 | Log2 reporter intensity values: USP48 [1, 9]: 1.018 and 0.949 | Log2 reporter intensity values ([1]; 1_1 μM, replicates A-B (C NaN)): 0.113 and -0.07208 | Log2 reporter intensity values ([1]; 1_4 μM, replicates A-B (C NaN)): 0.01672 and -0.0523 | Log2 reporter intensity values ([1]; 1 at 1 μM, replicates A-C): 0.1561 and -0.1059 | Log2 reporter intensity values ([1]; 1 at 4 μM, replicates A-C): 0.02574 and -0.07554 | Log2 reporter intensity values: OTUB1 [2, 8]: 1.079 and 1.058 and 1.055 | Log2 reporter intensity values: OTUB1 [2, 9]: 0.9564 and 0.9957 and 1.033 | Log2 reporter intensity values ([2]; 1_1 μM): 0.07905 and 0.05739 and 0.05461 | Log2 reporter intensity values ([2]; 1_4 μM): -0.04373 and -0.004436 and 0.03334 | Log2 reporter intensity values ([2]; 1 at 1 μM): 0.1099 and 0.08068 and 0.07687 | Log2 reporter intensity values ([2]; 1 at 4 μM): -0.06433 and -0.00624 and 0.04749 | Log2 reporter intensity values, EIF3F ([3]; 1 μM 1 (60 min) + 20 nM ABP 2 (10 min), All values): -0.05755 and -0.0632 and -0.06224 | Log2 reporter intensity values, EIF3F ([3]; 1 μM 1 (60 min) + 20 nM ABP 2 (10 min), DMSO subtracted): -0.048 and -0.05365 and -0.05269 | Log2 reporter intensity values, EIF3F ([3]; 4 μM 1 (60 min) + 20 nM ABP 2 (10 min), All values): 0.06402 and -0.06596 and 0.05418 | Log2 reporter intensity values, EIF3F ([3]; 4 μM 1 (60 min) + 20 nM ABP 2 (10 min), DMSO subtracted): 0.07357 and -0.05641 and 0.06373 | Log2 reporter intensity values: EIF3F ([3]; 1 at 1 μM): 0.9673 and 0.9635 and 0.9641 | Log2 reporter intensity values: EIF3F ([3]; 1 at 4 μM): 1.052 and 0.9617 and 1.045 | Log2 t-test Difference ([3]; 1 - 1 μM): -0.1421 | Log2 t-test Difference ([3]; 1 - 4 μM): -0.06374 | Log2 reporter intensity values ([3]; 1_1 μM, DMSO subtracted): -0.03315 and -0.03692 and -0.03628 | Log2 reporter intensity values ([3]; 1_4 μM, DMSO subtracted): 0.0519 and -0.03877 and 0.04475 | Log2 reporter intensity values ([3]; 1 at 1 μM, DMSO subtracted): -0.048 and -0.05365 and -0.05269 | Log2 reporter intensity values ([3]; 1 at 4 μM, DMSO subtracted): 0.07357 and -0.05641 and 0.06373 | Log2 reporter intensity values: USP7 [4, 8]: 1.015 and 0.998 and 1.012 | Log2 reporter intensity values: USP7 [4, 9]: 1.024 and 0.9908 and 1.009 | Log2 reporter intensity values ([4]; 1_1 μM): 0.01464 and -0.002291 and 0.01166 | Log2 reporter intensity values ([4]; 1_4 μM): 0.02367 and -0.009481 and 0.008925 | Log2 reporter intensity values ([4]; 1 at 1 μM): 0.02137 and -0.002902 and 0.01712 | Log2 reporter intensity values ([4]; 1 at 4 μM): 0.03415 and -0.01333 and 0.01322 | Log2 reporter intensity values: PSMD14 [5, 8]: 1.038 and 0.9518 and 1.018 | Log2 reporter intensity values: PSMD14 [5, 9]: 1.04 and 0.9939 and 0.9281 | Log2 reporter intensity values ([5]; 1_1 μM): 0.0358 and -0.05091 and 0.01579 | Log2 reporter intensity values ([5]; 1_4 μM): 0.03701 and -0.008736 and -0.0746 | Log2 reporter intensity values ([5]; 1 at 1 μM): 0.05445 and -0.07134 and 0.02638 | Log2 reporter intensity values ([5]; 1 at 4 μM): 0.05612 and -0.008793 and -0.1077 | Log2 reporter intensity values: USP10 ([6]; 1 at 1 μM): 0.8161 and 0.9562 and 0.9573 | Log2 reporter intensity values: USP10 ([6]; 1 at 4 μM): 0.9286 and 0.9489 and 0.874 | Log2 reporter intensity values ([6]; 1_1 μM): -0.1848 and -0.04476 and -0.04368 | Log2 reporter intensity values ([6]; 1_4 μM): -0.07234 and -0.05211 and -0.1269 | Log2 reporter intensity values ([6]; 1 at 1 μM): -0.2931 and -0.06461 and -0.06297 | Log2 reporter intensity values ([6]; 1 at 4 μM): -0.1068 and -0.07574 and -0.1942 | Log2 reporter intensity values: PRPF8 [7, 8]: 0.961 and 0.941 and 0.9412 | Log2 reporter intensity values: PRPF8 [7, 9]: 0.9254 and 0.9448 and 0.8776 | Log2 reporter intensity values ([7]; 1_1 μM): -0.03926 and -0.05927 and -0.05901 | Log2 reporter intensity values ([7]; 1_4 μM): -0.07482 and -0.05547 and -0.1226 | Log2 reporter intensity values ([7]; 1 at 1 μM): -0.05742 and -0.08778 and -0.08738 | Log2 reporter intensity values ([7]; 1 at 4 μM): -0.1118 and -0.08196 and -0.1883
Structure (SMILES): N#CN1CCC[C@H]1C(=O)N1CCc2c(-c3c[nH]c4ncccc34)cccc21 [Compound 1]

Log2 reporter intensity values: USP48 ([1]; 20 nM ABP 2 alone): 0.9588 and 0.9788 | Log2 reporter intensity values ([1]; 20 nM ABP 2, replicates A-B (C NaN)): -0.04252 and -0.02245 | Log2 reporter intensity values ([1]; 20 nM ABP 2, replicates A-C): -0.06076 and -0.03088 | Log2 reporter intensity values: OTUB1 ([2]; 20 nM ABP 2 alone): 1.065 and 1.087 and 1.08 | Log2 reporter intensity values ([2]; 20 nM ABP 2): 0.1206 and 0.06511 and 0.07959 | Log2 reporter intensity values: USP7 ([4]; 20 nM ABP 2 alone): 0.9183 and 1.036 and 1.009 | Log2 reporter intensity values: PSMD14 ([5]; 20 nM ABP 2 alone): 0.9494 and 1.033 and 1.015 | Log2 reporter intensity values: PRPF8 ([7]; 20 nM ABP 2 alone): 0.8057 and 0.8767 and 0.8316
Structure (SMILES): C#Cc1cnc2[nH]cc(-c3cccc4c3CCN4C(=O)[C@@H]3CCCN3C#N)c2c1 [Compound 2]
Log2 reporter intensity values ([4]; 20 nM ABP 2): 0.05058 and 0.01361 and -0.082 and 0.009195 | Log2 reporter intensity values ([5]; 20 nM ABP 2): -0.07484 and 0.0464 and 0.02103 and -0.05321 and 0.03002 and 0.01203 | Log2 reporter intensity values ([7]; 20 nM ABP 2): -0.3117 and -0.1898 and -0.2661 and -0.1946 and -0.1687
